Test results: ChEMBL document CHEMBL2346657, “Synthesis of novel 2-amino-4-(5'-substituted 2'-phenyl-1H-indol-3'-yl)-6-aryl-4H-pyran-3-carbonitrile derivatives as antimicrobial and antioxidant agents” (2013)
The source made the active and inactive calls. How the calls were made is not given here.

How the values were obtained:
Assay type in all cases: functional
Aspergillus flavus [1] = assay: Antimicrobial activity against Aspergillus flavus MTCC 1973 at 750 ug/ml after 72 hrs by cup plate method; conditions: MTCC 1973, 72 h, read-out: IZ
Aspergillus niger [2] = assay: Antimicrobial activity against Aspergillus niger MTCC 281 at 750 ug/ml after 72 hrs by cup plate method; conditions: MTCC 281, 72 h, read-out: IZ
Aspergillus terreus [3] = assay: Antimicrobial activity against Aspergillus terreus MTCC 1782 at 1000 ug/ml after 72 hrs by cup plate method; conditions: MTCC 1782, 72 h, read-out: IZ
Klebsiella pneumoniae [4] = assay: Antimicrobial activity against Klebsiella pneumoniae NCTC 13368 at 500 ug/ml after 24 hrs by cup plate method; conditions: NCTC 13368, 24 h, read-out: IZ
Aspergillus oryzae [5] = assay: Antimicrobial activity against Aspergillus oryzae MTCC 3567 at 500 ug/ml after 72 hrs by cup plate method; conditions: MTCC 3567, 72 h, read-out: IZ
Aspergillus flavus [6] = assay: Antimicrobial activity against Aspergillus flavus MTCC 1973 at 500 ug/ml after 72 hrs by cup plate method; conditions: MTCC 1973, 72 h, read-out: IZ
Aspergillus niger [7] = assay: Antimicrobial activity against Aspergillus niger MTCC 281 at 500 ug/ml after 72 hrs by cup plate method; conditions: MTCC 281, 72 h, read-out: IZ
Staphylococcus aureus [8] = assay: Antimicrobial activity against Staphylococcus aureus ATCC 29513 at 750 ug/ml after 24 hrs by cup plate method; conditions: ATCC 29513, 24 h, read-out: IZ
[9] = Antioxidant activity assessed as metal chelating activity by measuring inhibition of ferrozine-Fe2+ complex formation at 25 to 100 ug/ml
Staphylococcus aureus [10] = assay: Antimicrobial activity against Staphylococcus aureus ATCC 29513 at 500 ug/ml after 24 hrs by cup plate method; conditions: ATCC 29513, 24 h, read-out: IZ
Klebsiella pneumoniae [11] = assay: Antimicrobial activity against Klebsiella pneumoniae NCTC 13368 at 750 ug/ml after 24 hrs by cup plate method; conditions: NCTC 13368, 24 h, read-out: IZ
Aspergillus oryzae [12] = assay: Antimicrobial activity against Aspergillus oryzae MTCC 3567 at 1000 ug/ml after 72 hrs by cup plate method; conditions: MTCC 3567, 72 h, read-out: IZ
Staphylococcus aureus [13] = assay: Antimicrobial activity against Staphylococcus aureus ATCC 29513 at 1000 ug/ml after 24 hrs by cup plate method; conditions: ATCC 29513, 24 h, read-out: IZ
Escherichia coli [14] = assay: Antimicrobial activity against Escherichia coli MTCC 723 at 750 ug/ml after 24 hrs by cup plate method; conditions: MTCC 723, 24 h, read-out: IZ
Aspergillus terreus [15] = assay: Antimicrobial activity against Aspergillus terreus MTCC 1782 at 750 ug/ml after 72 hrs by cup plate method; conditions: MTCC 1782, 72 h, read-out: IZ
Aspergillus flavus [16] = assay: Antimicrobial activity against Aspergillus flavus MTCC 1973 at 1000 ug/ml after 72 hrs by cup plate method; conditions: MTCC 1973, 72 h, read-out: IZ
Pseudomonas aeruginosa [17] = assay: Antimicrobial activity against Pseudomonas aeruginosa MTCC 1688 at 750 ug/ml after 24 hrs by cup plate method; conditions: MTCC 1688, 24 h, read-out: IZ
Pseudomonas aeruginosa [18] = assay: Antimicrobial activity against Pseudomonas aeruginosa MTCC 1688 at 500 ug/ml after 24 hrs by cup plate method; conditions: MTCC 1688, 24 h, read-out: IZ
Escherichia coli [19] = assay: Antimicrobial activity against Escherichia coli MTCC 723 at 1000 ug/ml after 24 hrs by cup plate method; conditions: MTCC 723, 24 h, read-out: IZ
Aspergillus niger [20] = assay: Antimicrobial activity against Aspergillus niger MTCC 281 at 1000 ug/ml after 72 hrs by cup plate method; conditions: MTCC 281, 72 h, read-out: IZ
Pseudomonas aeruginosa [21] = assay: Antimicrobial activity against Pseudomonas aeruginosa MTCC 1688 at 1000 ug/ml after 24 hrs by cup plate method; conditions: MTCC 1688, 24 h, read-out: IZ
Escherichia coli [22] = assay: Antimicrobial activity against Escherichia coli MTCC 723 at 500 ug/ml after 24 hrs by cup plate method; conditions: MTCC 723, 24 h, read-out: IZ
Aspergillus oryzae [23] = assay: Antimicrobial activity against Aspergillus oryzae MTCC 3567 at 750 ug/ml after 72 hrs by cup plate method; conditions: MTCC 3567, 72 h, read-out: IZ
Aspergillus terreus [24] = assay: Antimicrobial activity against Aspergillus terreus MTCC 1782 at 500 ug/ml after 72 hrs by cup plate method; conditions: MTCC 1782, 72 h, read-out: IZ
Klebsiella pneumoniae [25] = assay: Antimicrobial activity against Klebsiella pneumoniae NCTC 13368 at 1000 ug/ml after 24 hrs by cup plate method; conditions: NCTC 13368, 24 h, read-out: IZ

Structure (SMILES)	zone of inhibition at 750 µg/mL (Aspergillus flavus [1]) [mm]	zone of inhibition at 750 µg/mL (Aspergillus niger [2]) [mm]	zone of inhibition at 1000 µg/mL (Aspergillus terreus [3]) [mm]	zone of inhibition at 500 µg/mL (Klebsiella pneumoniae [4]) [mm]	zone of inhibition at 500 µg/mL (Aspergillus oryzae [5]) [mm]	zone of inhibition at 500 µg/mL (Aspergillus flavus [6]) [mm]	zone of inhibition at 500 µg/mL (Aspergillus niger [7]) [mm]	zone of inhibition at 750 µg/mL (Staphylococcus aureus [8]) [mm]	Activity [9]	zone of inhibition at 500 µg/mL (Staphylococcus aureus [10]) [mm]	zone of inhibition at 750 µg/mL (Klebsiella pneumoniae [11]) [mm]	zone of inhibition at 1000 µg/mL (Aspergillus oryzae [12]) [mm]	zone of inhibition at 1000 µg/mL (Staphylococcus aureus [13]) [mm]	zone of inhibition at 750 µg/mL (Escherichia coli [14]) [mm]	zone of inhibition at 750 µg/mL (Aspergillus terreus [15]) [mm]	zone of inhibition at 1000 µg/mL (Aspergillus flavus [16]) [mm]	zone of inhibition at 750 µg/mL (Pseudomonas aeruginosa [17]) [mm]	zone of inhibition at 500 µg/mL (Pseudomonas aeruginosa [18]) [mm]	zone of inhibition at 1000 µg/mL (Escherichia coli [19]) [mm]	zone of inhibition at 1000 µg/mL (Aspergillus niger [20]) [mm]	further results
Cc1ccc2[nH]c(-c3ccccc3)c(C3C=C(c4ccc(Cl)cc4)OC(N)=C3C#N)c2c1 (stereo not given)	10	10	13	9	10	10	10	5	Active	6	9	10	2	10	13	8	5	6	10	10	zone of inhibition at 1000 µg/mL (Pseudomonas aeruginosa [21]): 2 mm; zone of inhibition at 500 µg/mL (Escherichia coli [22]): 10 mm; zone of inhibition at 750 µg/mL (Aspergillus oryzae [23]): 10 mm; zone of inhibition at 500 µg/mL (Aspergillus terreus [24]): 12 mm; zone of inhibition at 1000 µg/mL (Klebsiella pneumoniae [25]): 8 mm
O=c1[nH]cnc2c1C(c1c(-c3ccccc3)[nH]c3ccccc13)C=C(c1ccccc1)O2 (stereo not given)	9	6	8	11	5	9	6	10	Active	10	10	5	10	6	8	9	4	5	6	5	zone of inhibition at 1000 µg/mL (Pseudomonas aeruginosa [21]): 4 mm; zone of inhibition at 500 µg/mL (Escherichia coli [22]): 8 mm; zone of inhibition at 750 µg/mL (Aspergillus oryzae [23]): 5 mm; zone of inhibition at 500 µg/mL (Aspergillus terreus [24]): 9 mm; zone of inhibition at 1000 µg/mL (Klebsiella pneumoniae [25]): 10 mm
Cc1ccc2[nH]c(-c3ccccc3)c(C3C=C(c4ccccc4)Oc4[nH]c(=O)nc(N)c43)c2c1 (stereo not given)	8	9	9	6	9	8	10	11	Active	11	5	5	11	8	8	7	10	10	8	10	zone of inhibition at 1000 µg/mL (Pseudomonas aeruginosa [21]): 10 mm; zone of inhibition at 500 µg/mL (Escherichia coli [22]): 8 mm; zone of inhibition at 750 µg/mL (Aspergillus oryzae [23]): 8 mm; zone of inhibition at 500 µg/mL (Aspergillus terreus [24]): 8 mm; zone of inhibition at 1000 µg/mL (Klebsiella pneumoniae [25]): 5 mm
Cc1ccc(C2=CC(c3c(-c4ccccc4)[nH]c4ccccc34)c3c(N)n[nH]c3O2)cc1 (stereo not given)	2	9	4	4	7	3	9	3	Active	5	3	7	3	8	4	8	6	8	8	5	zone of inhibition at 1000 µg/mL (Pseudomonas aeruginosa [21]): 6 mm; zone of inhibition at 500 µg/mL (Escherichia coli [22]): 8 mm; zone of inhibition at 750 µg/mL (Aspergillus oryzae [23]): 7 mm; zone of inhibition at 500 µg/mL (Aspergillus terreus [24]): 4 mm; zone of inhibition at 1000 µg/mL (Klebsiella pneumoniae [25]): 2 mm
